# Results as given in ChEMBL document CHEMBL3885861, “Open TG-GATES”.
# Species on record: Rattus norvegicus
# Assay: Open TG-GATES - Regimen: Daily Repeat
# Type: toxicity, organism-based, Sprague-Dawley
# Parameters: regimen Daily Repeat, gender Male, age 6 weeks
# Conditions: in vivo, po, route gavage; for APTT / Bas / Eos / Fbg / Hb / Ht / Lym / MCH / MCHC / MCV / Mono / Neu / PT / Plat / RBC / Ret / WBC: tissue Blood; for KIDNEY_L / KIDNEY_R / KIDNEY_TOTAL: tissue Kidney; for LIVER: tissue Liver; for ALT / AST / BUN / CRE / Ca / DBIL / GLC / IP / K / LDH / Na / PL / RALB / TBIL / TC / TG / TP / gamma-GTP / ALP: tissue Plasma
# [1] = 15 mg/kg, 72 h, dose level Low, time 3 day
# [2] = 15 mg/kg, […], dose level Low, time 7 day
# [3] = 15 mg/kg, […], dose level Low, time 14 day
# [4] = 15 mg/kg, […], dose level Low, time 28 day
structure (smiles),measurement,setting,value
Oc1ncnc2[nH]ncc12 [ALLOPURINOL],TERMINAL_BW,[1],242.3 g
same,APTT,[1],16.5 s
same,Bas,[1],0%
same,Eos,[1],0.8%
same,Fbg,[1],229.2 mg/dL
same,Hb,[1],13.9 g/dL
same,Ht,[1],41.8%
same,Lym,[1],81.2%
same,MCH,[1],21.5 pg
same,MCHC,[1],33.3%
same,MCV,[1],64.8 fL
same,Mono,[1],6%
same,Neu,[1],11.4%
same,PT,[1],12.1 s
same,Plat,[1],91.2 x10_4/uL
same,RBC,[1],646.4 x10_4/ul
same,Ret,[1],7%
same,WBC,[1],93.9 x10_2/uL
same,KIDNEY_L,[1],1 g
same,KIDNEY_R,[1],1 g
same,KIDNEY_TOTAL,[1],2.1 g
same,LIVER,[1],11.7 g
same,ALT,[1],33.4 IU/L
same,AST,[1],67.4 IU/L
same,BUN,[1],18.4 mg/dL
same,CRE,[1],0.5 mg/dL
same,Ca,[1],11.3 mg/dL
same,DBIL,[1],0.002 mg/dL
same,GLC,[1],193 mg/dL
same,IP,[1],8.4 mg/dL
same,K,[1],4.8 meq/L
same,LDH,[1],85.2 IU/L
same,Na,[1],139.2 meq/L
same,PL,[1],162.4 mg/dL
same,RALB,[1],3.9 g/dL
same,TBIL,[1],0.3 mg/dL
same,TC,[1],81.4 mg/dL
same,TG,[1],111 mg/dL
same,TP,[1],6.1 g/dL
same,gamma-GTP,[1],1.6 IU/L
same,TERMINAL_BW,[2],256.8 g
same,TERMINAL_BW,[3],323.2 g
same,TERMINAL_BW,[4],383.9 g
same,APTT,[2],16.7 s
same,Bas,[2],0%
same,Eos,[2],1%
same,Fbg,[2],246.6 mg/dL
same,Hb,[2],14.8 g/dL
same,Ht,[2],44.6%
same,Lym,[2],83.2%
same,MCH,[2],21.1 pg
same,MCHC,[2],33.2%
same,MCV,[2],63.5 fL
same,Mono,[2],3.4%
same,Neu,[2],12.6%
same,PT,[2],11.8 s
same,Plat,[2],112.6 x10_4/uL
same,RBC,[2],702.2 x10_4/ul
same,Ret,[2],4.6%
same,WBC,[2],108.6 x10_2/uL
same,APTT,[3],16.8 s
same,Bas,[3],0%
same,Eos,[3],0.8%
same,Fbg,[3],242.8 mg/dL
same,Hb,[3],14.6 g/dL
same,Ht,[3],44%
same,Lym,[3],81%
same,MCH,[3],20.5 pg
same,MCHC,[3],33.2%
same,MCV,[3],61.7 fL
same,Mono,[3],4.8%
same,Neu,[3],13.4%
same,PT,[3],11.7 s
same,Plat,[3],111.9 x10_4/uL
same,RBC,[3],714 x10_4/ul
same,Ret,[3],4.4%
same,APTT,[4],16.6 s
same,Bas,[4],0%
same,Eos,[4],1%
same,Fbg,[4],225.8 mg/dL
same,Hb,[4],15.4 g/dL
same,Ht,[4],46%
same,Lym,[4],83.8%
same,MCH,[4],19.4 pg
same,MCHC,[4],33.6%
same,MCV,[4],57.8 fL
same,Mono,[4],2.8%
same,Neu,[4],12.4%
same,PT,[4],12.1 s
same,RBC,[4],795.8 x10_4/ul
same,Ret,[4],2.4%
same,WBC,[4],167 x10_2/uL
same,KIDNEY_L,[2],1.2 g
same,KIDNEY_R,[2],1.2 g
same,KIDNEY_TOTAL,[2],2.3 g
same,KIDNEY_L,[3],1.3 g
same,KIDNEY_R,[3],1.3 g
same,KIDNEY_TOTAL,[3],2.6 g
same,KIDNEY_L,[4],1.4 g
same,KIDNEY_R,[4],1.4 g
same,KIDNEY_TOTAL,[4],2.9 g
same,LIVER,[2],11.7 g
same,LIVER,[3],15.3 g
same,LIVER,[4],16.6 g
same,ALP,[2],753 IU/L
same,ALT,[2],25.2 IU/L
same,AST,[2],56.6 IU/L
same,BUN,[2],21.6 mg/dL
same,CRE,[2],0.6 mg/dL
same,Ca,[2],11.3 mg/dL
same,DBIL,[2],0.012 mg/dL
same,GLC,[2],192.6 mg/dL
same,IP,[2],8.6 mg/dL
same,K,[2],4.5 meq/L
same,Na,[2],137.8 meq/L
same,PL,[2],156 mg/dL
same,RALB,[2],4.2 g/dL
same,TBIL,[2],0.3 mg/dL
same,TC,[2],81.2 mg/dL
same,TG,[2],85.2 mg/dL
same,TP,[2],6.2 g/dL
same,gamma-GTP,[2],2.4 IU/L
same,ALP,[3],823.2 IU/L
same,ALT,[3],27.2 IU/L
same,AST,[3],56.8 IU/L
same,BUN,[3],19.4 mg/dL
same,CRE,[3],0.6 mg/dL
same,DBIL,[3],0 mg/dL
same,GLC,[3],185.4 mg/dL
same,IP,[3],7.5 mg/dL
same,K,[3],4.4 meq/L
same,LDH,[3],74.8 IU/L
same,Na,[3],138.8 meq/L
same,PL,[3],158.6 mg/dL
same,RALB,[3],3.9 g/dL
same,TBIL,[3],0.2 mg/dL
same,TC,[3],69.8 mg/dL
same,TG,[3],161.6 mg/dL
same,TP,[3],6.2 g/dL
same,gamma-GTP,[3],2 IU/L
same,ALP,[4],525.8 IU/L
same,ALT,[4],29.4 IU/L
same,AST,[4],59.2 IU/L
same,BUN,[4],20.6 mg/dL
same,CRE,[4],0.6 mg/dL
same,Ca,[4],11 mg/dL
same,DBIL,[4],0.014 mg/dL
same,GLC,[4],188.4 mg/dL
same,IP,[4],6.9 mg/dL
same,K,[4],4.8 meq/L
same,LDH,[4],74.4 IU/L
same,Na,[4],139.6 meq/L
same,PL,[4],153.4 mg/dL
same,RALB,[4],4.1 g/dL
same,TBIL,[4],0.3 mg/dL
same,TC,[4],70 mg/dL
same,TG,[4],160.6 mg/dL
same,TP,[4],6.6 g/dL
same,gamma-GTP,[4],2.8 IU/L
same,TERMINAL_BW,"50 mg/kg, 72 h, dose level Middle, time 3 day",239.5 g
